Laboratory results as given in patent publication US9795561B2, “Combination of umeclidinium, fluticasone propionate and salmeterol xinafoate for use in the treatment of inflammatory or respiratory tract diseases” (Glaxo Group Limited, priority 2012, dated 2017).

Experiments:
[1] = target: human M3 receptor (Homo sapiens, UniProt P20309); experiment: Reversibility at the human M3 receptor in vitro; assay type: binding
[2] = tested on: pre-clinical models; experiment: Duration of action in vivo when administered directly to the lungs in pre-clinical models
[3] = tested on: healthy volunteers and COPD patients; experiment: Clinical pharmacology studies, single inhaled doses, plethysmography (sGaw, Raw) and spirometry (FEV1); assay type: in vivo, human
Protocol: Several clinical pharmacology studies have been conducted using umeclidinium bromide in both healthy volunteers and COPD patients to investigate the safety, tolerability, pharmacokinetics and pharmacodynamics of this compound. The bronchodilatory effects and duration of action of single inhaled doses of this compound as measured by plethysmography (sGaw, Raw) and spirometry (FEV1) were assessed in some of the above noted studies.

[4] = tested on: subjects with COPD; experiment: 14-day once-daily dose-ranging study in subjects with COPD; assay type: in vivo, human
Description: In addition, this study confirmed that umeclidinium bromide has a once-daily profile.

[5] = tested on: subjects with COPD; experiment: 28-day once-daily dry powder inhaler study in subjects with COPD; assay type: in vivo, human; conditions: 125, 250 and 500 mcg once-daily, 28 days
Description: A further study evaluated the efficacy and safety of three doses of umeclidinium (125 mcg, 250 mcg and 500 mcg as umeclidinium bromide) administered once-daily via a dry powder inhaler over a 28 day period in subjects with COPD.

[6] = tested on: muscarinic receptor; experiment: Muscarinic receptor antagonism, studies in animal models and in humans

human M3 receptor, sequence (P20309 whole entry): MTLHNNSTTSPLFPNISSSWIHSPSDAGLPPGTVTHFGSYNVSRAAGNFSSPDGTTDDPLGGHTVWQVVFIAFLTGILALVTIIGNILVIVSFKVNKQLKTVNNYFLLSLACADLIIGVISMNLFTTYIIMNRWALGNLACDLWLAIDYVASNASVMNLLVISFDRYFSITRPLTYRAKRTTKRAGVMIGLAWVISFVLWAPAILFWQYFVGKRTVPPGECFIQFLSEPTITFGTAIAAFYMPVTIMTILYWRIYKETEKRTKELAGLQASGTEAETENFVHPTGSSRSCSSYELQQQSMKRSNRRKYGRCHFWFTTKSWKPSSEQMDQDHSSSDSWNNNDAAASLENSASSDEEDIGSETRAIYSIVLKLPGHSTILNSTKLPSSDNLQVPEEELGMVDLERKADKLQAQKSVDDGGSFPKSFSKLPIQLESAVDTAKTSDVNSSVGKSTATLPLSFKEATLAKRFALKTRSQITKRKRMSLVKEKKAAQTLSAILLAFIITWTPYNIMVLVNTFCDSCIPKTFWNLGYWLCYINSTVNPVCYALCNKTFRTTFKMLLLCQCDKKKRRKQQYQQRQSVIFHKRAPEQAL

Q: How did the “reversibility at the human M3 receptor” value [1] turn out when `OC(c1ccccc1)(c1ccccc1)C12CC[N+](CCOCc3ccccc3)(CC1)CC2.[Br-]` [umeclidinium bromide, 4-[hydroxy(diphenyl)methyl]-1-{2-[(phenylmethyl)oxy]ethyl}-1-azoniabicyclo[2.2.2]octane bromide] was run?
A: slow reversibility

Q: And the “duration of action in vivo” value [2]?
A: long duration of action

Q: What about the bronchodilatory effect [3] of the same compound?
A: clinically relevant bronchodilation

Q: What about the duration of action [3] of the same compound?
A: 24 h

Q: What about the “improvement in trough FEV1 versus open label tiotropium (18 mcg once-daily)” value ([4]; all once-daily doses (62.5-1000 mcg), 14 days) of the same compound?
A: numerically greater improvement

Q: And the “pulmonary function compared to placebo” value ([4]; five once-daily doses (62.5, 125, 250, 500, 1000 mcg) over 14 days)?
A: statistically significant improvements

Q: What about the bronchodilation [5] of the same compound?
A: maintaining significant bronchodilation over twenty four hours

Q: And the safety [5]?
A: appears to be safe

Q: And the “muscarinic receptor antagonist profile” value [6]?
A: long acting high-affinity pan-active muscarinic receptor antagonist
